Results as given in article PMC5059489, “Mechanistic evaluation and transcriptional signature of a glutathione S-transferase omega 1 inhibitor” (Nature Communications, 2016).
“And” between values parts separate entries of the source, which are not always exact repeats. Equal values may be shown once. Read-outs that look alike come from different tables or passages of the source.

Legend:
[1] = biological target: T1, GSTO1 (Homo sapiens, UniProt P78417); assay: GSTO1 substrate assay (reduction of 4-NPG)
T1 sequence (P78417 1-241): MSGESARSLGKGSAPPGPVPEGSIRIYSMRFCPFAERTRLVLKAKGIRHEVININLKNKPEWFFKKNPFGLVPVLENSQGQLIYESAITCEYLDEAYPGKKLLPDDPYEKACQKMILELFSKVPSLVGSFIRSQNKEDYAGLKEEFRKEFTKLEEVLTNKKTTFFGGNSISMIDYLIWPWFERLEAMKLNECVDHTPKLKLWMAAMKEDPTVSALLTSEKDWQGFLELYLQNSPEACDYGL
Protocol: For activity screening, we adapted a GSTO1 substrate assay that relies on the quantification of the reduction of S-(4-nitrophenacyl)glutathione (4-NPG), a GSTO1-specific substrate[17], using recombinant human GSTO1 in a high-throughput screening format.
Enzyme activity was measured by monitoring the reduction of 4-NPG to 4-nitroacetophenone by GSTO1.

[2] = biological target: T1, GSTO1; assay: In-gel fluorescence competitive CMFDA binding assay, recombinant GSTO1; conditions: inhibition of CMFDA binding
Source text: (§1) Primary screening of GSTO inhibitors was based on competitive inhibition of CMFDA binding to endogenous GSTO. Briefly, HCT116^p53+/+ cells (4 × 10^4 per well) were coated in a 12-well plate. […] Cells were then washed with PBS and lysed using Cell Lytic M buffer (Sigma). […] Gels were immediately scanned on a Typhoon variable mode imager (Amersham Bioscience). Quantification of fluorescent band intensity was done using Image Quant 5.2 software.

[3] = biological target: T2, endogenous GSTO1 (Homo sapiens, UniProt P78417); assay: In-gel fluorescence competitive CMFDA binding assay, endogenous GSTO1 in HCT116; conditions: 10 µM; inhibition of CMFDA binding, HCT116
T2 sequence (P78417 1-241): T1 sequence (P78417 1-241)
Source text: as §1

[4] = test system: HCT116p53+/+ cell; assay: MTT cell proliferation at single concentration; format: cell-based, human
Protocol: Cell proliferation was assessed by a MTT assay. Cancer cells were seeded in 96-well microtitre plates and, after overnight attachment, treated with GSTO1 inhibitors. After 72 h, MTT solution (3 mg ml^−1; 20 μl) was added to each well and cells were incubated for 3 h at 37 °C. After incubation, media from each well was removed and the dark blue formazan crystals formed by live cells were dissolved in DMSO (150 μl per well). The absorbance intensity was measured at 570 nm on a microplate reader (Molecular Devices, Sunnyvale, CA, USA). Cell viability after 24 h treatment was assessed using ApoTox-Glo triplex assay (Promega) according to the manufacturer's protocol. At least three independent dose–response experiments with each concentration tested in triplicate were performed for each cell line.

[5] = read-out: GSTO substrate assay IC50, cluster screening tables

Structure (SMILES) | GSTO substrate assay % Inhibition at 10 µM [1] [%] | GSTO binding assay (% Inhibition at 10 µM) Recombinant [2] [%] | GSTO binding assay (% Inhibition at 10 µM) Endogenous [3] [%] | % Inhibition of HCT116p53+/+ cell proliferation at 10 µM [4] | IC50 [1, 5] [nM] | IC50 ([1]; Substrate assay IC50, pilot screening) [nM]
O=C(CCl)Nc1sc2c(c1C(=O)c1ccccc1)CCCC2 [C2-20] | 91.1 | 68.3 | 39.6 | – | – | –
NC(=O)CCN(C(=O)CCl)c1ccccc1 [C4-3] | 32.3 | -1.7 | – | 70.6% and 71.9% | – | –
Cc1c(-c2ccccc2)sc(NC(=O)CCl)c1C(=O)N1CCOCC1 [C2-15] | 87.8 | 63.2 | 74.2 | – | 360 | –
Cc1cc(C)c(-c2csc(NC(=O)CCl)n2)cc1C [C2-23] | 26.4 | 76.0 | – | – | – | –
CCOc1ccc(NC(=O)CCl)cc1S(=O)(=O)N1CCCCC1 [C1-30] | 75 | 75.9 | 80.8 | – | 79 | –
O=C(CCl)Nc1ccccc1NC(=O)CCl [4c] | – | – | – | – | – | 80800
CCN(CC)c1ccc(S(=O)(=O)N2CCOCC2)cc1NC(=O)CCl [C1-32] | 84.2 | 4.4 | 48.2 | – | – | –
O=C(CCl)Nc1ccc(OC(F)F)cc1 [C1-6] | 22.7 | 45.6 | 87.6 | – | – | –
Cc1nn(Cc2ccccc2)c(C)c1CNC(=O)CCl [C3-30] | 83.1 | 10.6 | 14.5 | – | – | –
CCN(c1ccc(NC(=O)CCl)cc1)C(C)C [C1-15] | 91.3 | 43.8 | 78.6 | – | – | –
C=CCOc1ccccc1CN(C(=O)CCl)c1ccc2c(c1)OCCO2 [C4-17] | 70.2 | 69.3 | – | 29% | 902 | –
CN(C)S(=O)(=O)c1ccc2c(c1)CCCN2C(=O)CCl [C5-18] | 72.7 | 69.7 | – | 91.6% and 91.4% | 164 | –
O=C(CCl)NC(=O)c1cccc2ccccc12 [C3-18] | 0.6 | 0.3 | 37.5 | – | – | –
O=C(CCl)N1CCc2cc([N+](=O)[O-])ccc21 [C5-19] | 40.0 | 72.2 | – | 84.6% and 75.2% | – | –
CN(C1CCCCC1)S(=O)(=O)c1ccc(NC(=O)CCl)cc1 [C1-25] | 9.8 | 70.3 | – | 11.3% and 21.7% | – | –
CCOc1ccc(NC(=O)NC(=O)CCl)cc1OCC [C3-19] | 99.5 | 59.2 | 65.2 | – | 508 | –
COc1cc2c(cc1OC)CN(C(=O)CCl)CC2 [C5-17] | 69.5 | 9.4 | – | – | – | –
CN(CCOc1ccc(Cl)cc1)C(=O)CCl [C4-9] | 20.7 | 66.7 | 43.5 | – | – | –
CCC1(c2ccccc2)NC(=O)N(NC(=O)CCl)C1=O (stereo not shown) [C2-29] | 42.7 | 13.5 | 65.0 | – | – | –
Cc1ccc(CSCCNC(=O)CCl)cc1 [C3-15] | 5.1 | 35.7 | 86.9 | – | – | –
COc1cc(C(=O)NNC(=O)CCl)cc(OC)c1OC [C3-22] | 10.4 | -2.4 | -12.1 | – | – | –
O=C(CCl)NCC1(N2CCCCC2)CCCCC1 [C3-31] | 0.3 | -13.7 | 23.0 | – | – | –

Structure (SMILES) | GSTO substrate assay % Inhibition at 10 µM [1] [%] | GSTO binding assay (% Inhibition at 10 µM) Recombinant [2] [%] | GSTO binding assay (% Inhibition at 10 µM) Endogenous [3] [%] | % Inhibition of HCT116p53+/+ cell proliferation at 10 µM [4] | IC50 [1, 5] [nM] | IC50 ([1]; Substrate assay IC50, pilot screening) [nM]
CCOC(=O)c1sc(-c2ccccc2)cc1NC(=O)CCl [C2-11] | -1.5 | 58.2 | 19.9 | – | – | –
Cc1cc(C)c(NC(=O)CNC(=O)CCl)c(C)c1 [C3-24] | 72.3 | 29.2 | 58.8 | – | – | –
O=C(CCl)Nc1c(Br)cc([N+](=O)[O-])cc1Br [C1-3] | -4.9 | 0.9 | 3.8 | – | – | –
COc1cc(OC)c(OC)cc1CNC(=O)CCl [C3-4] | 31.6 | -2.6 | – | 16% and 17.5% | – | –
O=C(CCl)N1CCC(Cc2ccccc2)CC1 [C5-1] | 83.5 | 67.5 | – | 93.4% | 48 | –
CCOC(=O)c1c(-c2ccccc2)csc1NC(=S)NC(=O)CCl [C3-26] | 69.5 | 68.2 | 42.2 | – | – | –
COCCN(C(=O)CCl)c1c(N)n(Cc2ccccc2)c(=O)[nH]c1=O [C4-18] | 14.2 | 4.5 | 18.7 | – | – | –
O=C(CCl)N1CCN(c2ncc(C(F)(F)F)cc2Cl)CC1 [C5-6] | 94.6 | 70.2 | – | 56.2% | 191 | –
O=C(CCl)N1CCN(S(=O)(=O)c2ccc(F)c(F)c2)CC1 [C5-14] | 91.8 | 61.2 | 60.9 | – | 496 | –
CCOC(=O)c1c(-c2ccc(OC)c(OC)c2)csc1NC(=O)CCl [C2-12] | 3.4 | 74.9 | 59.8 | – | – | –
CCOc1ccc(/C=C/C2=Cc3c(sc(NC(=O)CCl)c3C#N)C(C)(C)C2)cc1 [C2-21] | 99.5 | 78.6 | 52.3 | – | 350 | –
O=C(CCl)Nc1nc(-c2c[nH]c3ccccc23)cs1 [C2-25] | 3.7 | 75.7 | – | 0.5% and 4.3% | – | –
Cc1cccc(NC(=S)NC(NC(=O)CCl)C(Cl)(Cl)Cl)c1 (stereo not shown) [C3-27] | 54.2 | 63.4 | 63.8 | – | 1650 | –
O=C(CCl)NCCN1C(=O)SC(=Cc2ccccc2F)C1=O [C3-32] | 12.5 | 23.6 | 53.1 | – | – | –
O=C(CCl)Nc1ccccc1N1CCOCC1 [C1-21] | -8.4 | 69.9 | 58.2 | – | – | –
O=C(CCl)NCc1cc([N+](=O)[O-])ccc1O [C3-3] | 93.2 | 47.9 | 52.0 | – | – | –
CCN(C(=O)CCl)C1CCS(=O)(=O)C1 (stereo not shown) [C4-4] | -0.8 | 5.9 | 17.0 | – | – | –
O=C(CCl)NCc1ccccc1CN1CCOCC1 [C3-1] | 11.1 | 6.0 | 7.3 | – | – | –
CC(C)c1ccc(C(NC(=O)CCl)C(C)C)cc1 (stereo not shown) [C3-6] | 56.2 | 53.7 | 51.3 | – | 7880 | –
COC(=O)c1ccc(C(=O)OC)c(NC(=O)CCl)c1 [C1-8] | 100.9 | 61.2 | 56.5 | – | 5680 | –
CCOc1ccc(OCCNC(=O)CCl)cc1 [C3-13] | 62.6 | 25.1 | – | – | – | –
